From patent publication US11090319B2, “Therapeutic uses of pharmaceutical compositions comprising cyclic boronic acid ester derivatives” (Melinta Subsidiary Corp., priority 2010, dated 2021)

Key:
Assay in all cases: Ceftazidime MIC with fixed concentration of BLI
Assay type in all cases: cell-based
[1] = test system: CF1000 Citrobacter freundii Hyper AmpC expression
Procedure: (§1) Next, ceftazidime potentiation activity of several cyclic boronic acid ester derivatives was tested using a larger panel of strains expressing β-lactamase hydrolyzing enzymes. Ceftazidime MICs were determined alone and in the presence of fixed concentrations of various cyclic boronic acid ester derivatives.

[2] = test system: EC1009 Escherichia coli TEM-10; details: EC1009 TEM-10
Procedure: as §1

[3] = test system: ECL1002 Enterobacter cloacae Hyper AmpC expression
Procedure: as §1

[4] = test system: ec300 Escherichia coli TEM-3; details: ec300 TEM-3
Procedure: as §1

[5] = test system: KP1004 Klebsiella pneumoniae KPC-2; details: KP1004 KPC-2
Procedure: as §1

[6] = test system: ec310 Escherichia coli ACT-1; details: ec310 ACT-1
Procedure: as §1

[7] = test system: EC1010 Escherichia coli CMY-6; details: EC1010 CMY-6
Procedure: as §1

[8] = test system: ec306 Escherichia coli SHV-2; details: ec306 SHV-2
Procedure: as §1

[9] = test system: EC1012 Escherichia coli TEM-12; details: EC1012 TEM-12
Procedure: as §1

[10] = test system: KP1012 Klebsiella pneumoniae SHV-18; details: KP1012 SHV-18
Procedure: as §1

[11] = test system: EC1014 Escherichia coli DHA-1; details: EC1014 DHA-1
Procedure: as §1

[12] = test system: ec301 Escherichia coli TEM-6; details: ec301 TEM-6
Procedure: as §1

[13] = test system: ec302 Escherichia coli TEM-10; details: ec302 TEM-10
Procedure: as §1

[14] = test system: KP1008 Klebsiella pneumoniae KPC-2; details: KP1008 KPC-2
Procedure: as §1

[15] = test system: ec309 Escherichia coli MIR-1; details: ec309 MIR-1
Procedure: as §1

[16] = test system: KP1007 Klebsiella pneumoniae OXA-10; details: KP1007 OXA-10
Procedure: as §1

[17] = test system: KP1009 Klebsiella pneumoniae CTX-M-15; details: KP1009 CTX-M-15
Procedure: as §1

[18] = test system: KP1005 Klebsiella pneumoniae CTX-M-14; details: KP1005 CTX-M-14
Procedure: as §1

[19] = test system: AB1057 Acinetobacter baumannii OXA-58; details: AB1057 OXA-58
Procedure: as §1

[20] = test system: EC1006 Escherichia coli FOX-5; details: EC1006 FOX-5
Procedure: as §1

[21] = test system: EC1004 Escherichia coli CMY-2; details: EC1004 CMY-2
Procedure: as §1

[22] = test system: PAM2005 Pseudomonas aeruginosa ampC
Procedure: as §1

[23] = test system: ec308 Escherichia coli SHV-5; details: ec308 SHV-5
Procedure: as §1

[24] = test system: pa1063 Pseudomonas aeruginosa GES-1; details: pa1063 GES-1
Procedure: as §1

[25] = test system: EC1011 Escherichia coli TEM-26; details: EC1011 TEM-26
Procedure: as §1

[26] = test system: ec303 Escherichia coli TEM-12; details: ec303 TEM-12
Procedure: as §1

[27] = test system: KX1000 Klebsiella oxytoca OXA-2; details: KX1000 OXA-2
Procedure: as §1

[28] = test system: AB1054 Acinetobacter baumannii OXA-23; details: AB1054 OXA-23
Procedure: as §1

[29] = test system: EC1008 Escherichia coli CTX-M3
Procedure: as §1

[30] = test system: PAM2035 Pseudomonas aeruginosa ampC mexA:tet
Procedure: as §1

[31] = test system: EC1007 Escherichia coli KPC-3; details: EC1007 KPC-3
Procedure: as §1

[32] = Escherichia coli, read-out: Ceftazidime MIC Alone
[33] = Klebsiella pneumoniae, read-out: Ceftazidime MIC Alone
[34] = Acinetobacter baumannii, read-out: Ceftazidime MIC Alone
[35] = Pseudomonas aeruginosa, read-out: Ceftazidime MIC Alone

Compound: CC(C)(O/N=C(\C(=O)N[C@@H]1C(=O)N2C(C(=O)[O-])=C(C[n+]3ccccc3)CS[C@H]12)c1csc(N)n1)C(=O)O [Ceftazidime, reference compound]
- MIC ([1]; Citrobacter freundii, read-out: Ceftazidime MIC Alone): > 8 µg/mL
- MIC [2, 32]: > 8 µg/mL
- MIC ([3]; Enterobacter cloacae, read-out: Ceftazidime MIC Alone): > 8 µg/mL
- MIC [4, 32]: > 8 µg/mL
- MIC [5, 33]: > 8 µg/mL
- MIC [6, 32]: > 8 µg/mL
- MIC [7, 32]: > 8 µg/mL
- MIC [8, 32]: > 8 µg/mL
- MIC [9, 32]: > 8 µg/mL
- MIC [10, 33]: > 8 µg/mL
- MIC [11, 32]: > 8 µg/mL
- MIC [12, 32]: > 8 µg/mL
- MIC [13, 32]: > 8 µg/mL
- MIC [14, 33]: 1 to 8 µg/mL
- MIC [15, 32]: > 8 µg/mL
- MIC [16, 33]: > 8 µg/mL
- MIC [17, 33]: > 8 µg/mL
- MIC [18, 33]: > 8 µg/mL
- MIC [19, 34]: > 8 µg/mL
- MIC [20, 32]: > 8 µg/mL
- MIC [21, 32]: > 8 µg/mL
- MIC [22, 35]: > 8 µg/mL
- MIC [23, 32]: > 8 µg/mL
- MIC [24, 35]: > 8 µg/mL
- MIC [25, 32]: > 8 µg/mL
- MIC [26, 32]: > 8 µg/mL
- MIC ([27]; Klebsiella oxytoca, read-out: Ceftazidime MIC Alone): > 8 µg/mL
- MIC [28, 34]: > 8 µg/mL
- MIC [29, 32]: > 8 µg/mL
- MIC [30, 35]: > 8 µg/mL
- MIC [31, 32]: > 8 µg/mL

Compound: CC(=O)N[C@H]1CCC(CC(=O)O)OB1O (stereo partly drawn) [Compound 3, 2-((3R)-3-acetamido-2-hydroxy-1,2-oxaborinan-6-yl)acetic acid]
- Ceftazidime MIC with cyclic boronic acid ester derivative ([1]; derivative at 10 μg/mL): Z (MIC of greater than 8 μg/mL)
- Ceftazidime MIC with cyclic boronic acid ester derivative ([2]; derivative at 10 μg/mL): Z (MIC of greater than 8 μg/mL)
- Ceftazidime MIC with cyclic boronic acid ester derivative ([3]; derivative at 10 μg/mL): Z (MIC of greater than 8 μg/mL)
- Ceftazidime MIC with cyclic boronic acid ester derivative ([4]; derivative at 10 μg/mL): Z (MIC of greater than 8 μg/mL)
- Ceftazidime MIC with cyclic boronic acid ester derivative ([5]; derivative at 10 μg/mL): Y (MIC of greater than 1 μg/mL to 8 μg/mL)
- Ceftazidime MIC with cyclic boronic acid ester derivative ([6]; derivative at 10 μg/mL): Y (MIC of greater than 1 μg/mL to 8 μg/mL)
- Ceftazidime MIC with cyclic boronic acid ester derivative ([7]; derivative at 10 μg/mL): Z (MIC of greater than 8 μg/mL)
- Ceftazidime MIC with cyclic boronic acid ester derivative ([8]; derivative at 10 μg/mL): Z (MIC of greater than 8 μg/mL)
- Ceftazidime MIC with cyclic boronic acid ester derivative ([9]; derivative at 10 μg/mL): Z (MIC of greater than 8 μg/mL)
- Ceftazidime MIC with cyclic boronic acid ester derivative ([10]; derivative at 10 μg/mL): Z (MIC of greater than 8 μg/mL)
- Ceftazidime MIC with cyclic boronic acid ester derivative ([11]; derivative at 10 μg/mL): Y (MIC of greater than 1 μg/mL to 8 μg/mL)
- Ceftazidime MIC with cyclic boronic acid ester derivative ([12]; derivative at 10 μg/mL): Z (MIC of greater than 8 μg/mL)
- Ceftazidime MIC with cyclic boronic acid ester derivative ([13]; derivative at 10 μg/mL): Z (MIC of greater than 8 μg/mL)
- Ceftazidime MIC with cyclic boronic acid ester derivative ([14]; derivative at 10 μg/mL): X (MIC of 1 μg/mL or less)
- Ceftazidime MIC with cyclic boronic acid ester derivative ([15]; derivative at 10 μg/mL): Y (MIC of greater than 1 μg/mL to 8 μg/mL)
- Ceftazidime MIC with cyclic boronic acid ester derivative ([16]; derivative at 10 μg/mL): Z (MIC of greater than 8 μg/mL)
- Ceftazidime MIC with cyclic boronic acid ester derivative ([17]; derivative at 10 μg/mL): Z (MIC of greater than 8 μg/mL)
- Ceftazidime MIC with cyclic boronic acid ester derivative ([18]; derivative at 10 μg/mL): Z (MIC of greater than 8 μg/mL)
- Ceftazidime MIC with cyclic boronic acid ester derivative ([19]; derivative at 10 μg/mL): Z (MIC of greater than 8 μg/mL)
- Ceftazidime MIC with cyclic boronic acid ester derivative ([20]; derivative at 10 μg/mL): Y (MIC of greater than 1 μg/mL to 8 μg/mL)
- Ceftazidime MIC with cyclic boronic acid ester derivative ([21]; derivative at 10 μg/mL): Y (MIC of greater than 1 μg/mL to 8 μg/mL)
- Ceftazidime MIC with cyclic boronic acid ester derivative ([22]; derivative at 10 μg/mL): Z (MIC of greater than 8 μg/mL)
- Ceftazidime MIC with cyclic boronic acid ester derivative ([23]; derivative at 10 μg/mL): Z (MIC of greater than 8 μg/mL)
- Ceftazidime MIC with cyclic boronic acid ester derivative ([24]; derivative at 10 μg/mL): Z (MIC of greater than 8 μg/mL)
- Ceftazidime MIC with cyclic boronic acid ester derivative ([25]; derivative at 10 μg/mL): Z (MIC of greater than 8 μg/mL)
- Ceftazidime MIC with cyclic boronic acid ester derivative ([26]; derivative at 10 μg/mL): Z (MIC of greater than 8 μg/mL)
- Ceftazidime MIC with cyclic boronic acid ester derivative ([27]; derivative at 10 μg/mL): Z (MIC of greater than 8 μg/mL)
- Ceftazidime MIC with cyclic boronic acid ester derivative ([28]; derivative at 10 μg/mL): Z (MIC of greater than 8 μg/mL)
- Ceftazidime MIC with cyclic boronic acid ester derivative ([29]; derivative at 10 μg/mL): Y (MIC of greater than 1 μg/mL to 8 μg/mL)
- Ceftazidime MIC with cyclic boronic acid ester derivative ([30]; derivative at 10 μg/mL): Z (MIC of greater than 8 μg/mL)
- Ceftazidime MIC with cyclic boronic acid ester derivative ([31]; derivative at 10 μg/mL): X (MIC of 1 μg/mL or less)
